Measured values published in patent publication US7715901B2, “Sensitized online BOLD-MRI imaging method” (Yeda Research and Development Co. Ltd., priority 2002, dated 2010).

Tests used:
[1] = tested on: mouse ear lobe blood vessels; assay: Fluorescent intravital microscopy of PDT-induced hemodynamic changes; format: in vivo
Method: (iv) Intravital microscopy (IVM). Fluorescent IVM was performed with an upright microscope (Nikon Optiphot 2, Kawasaki, Japan) equipped with a thermoregulated stage (37° C.), a CCD camera (50 fps, Applitech, Tel-Aviv, Israel) and a VCR (JVC model HR-J437MS, Yokohama, Japan) for video recording.
Fluorescent IVM in the nude mouse ear lobe (Proske et al, 2000) was used for analysis of changes in vascular diameter, vascular permeability and blood flow. RBC from a donor mouse were labeled ex vivo with 4-(4-(didecylamino)styryl)-N-methylpyridinium iodide (4-Di-10-ASP, 7.5 μg/ml, Molecular Probes, Eugene, Oreg., USA), as previously described (Neeman et al., 2001). The labeled RBC mixed with TRITC-dextran (256 KDa, 0.5 mg/mouse as blood-pool marker, Sigma, St. Louis, Mo., USA) were i.v. administered to the tumor-bearing mouse (labeled cells comprised 1.17+/−0.08% of host RBC as verified on blood smears) and allowed to circulate for 10 min prior to video recording (mag. ×100, 20 min), starting 5 min prior to Pd-Bpheid/light and ending 5 min after the light was turned-off. Mice were euthanized by CO2 at the end of the experiment.
Fluorescence images of blood vessels were acquired every 2 minutes, before, during and up to 10 minutes after illumination. Two hemodynamic parameters were digitally calculated (Scionimage software, Scion Corp., USA) from these images: (1) Changes in blood vessel diameter (arteriolar and venular), and (2) Extravascular leakage of TRITC-dextran (measured as changes in mean pixel intensity at an 2500 μm^2 extravascular region of interest). Both parameters are presented as % of initial value.
It was reported by us (Zilberstein et al., 2001) and others (Dolmans et al., 2002), that in course of anti-vascular PDT, rapid and intense hemodynamic alterations and stasis are observed in the treated tumor site. In this experiment, fluorescence IVM was used to correlate these hemodynamic changes with the MR signal alterations before, during and after Pd-Bpheid PDT. All IVM experiments were performed on the mouse ear lobe model (Proske et al., 2000), since blood vessels in this area can be easily visualized non-invasively under the microscope. Three hemodynamic parameters were measured: (1) changes in vessel diameter (vasoconstriction), (2) extravascular macromolecular leakage, and (3) red blood cell (RBC) flux. […] Significant changes in vessel diameter or RBC flux were not observed in control animals (FIGS. 3B, D and F). […] Changes in tumor perfusion were assessed before, during and after Pd-Bpheid PDT. Pd-Bpheid administration and immediate illumination of the mouse ear lobe, initiated a rapid decrease in perfusion rate both in arterioles and vennules (open and solid circles, respectively), reaching stasis within 3-4 min (FIG. 3C), while illumination alone had no significant effect (FIG. 3D).

[2] = tested on: melanoma, glioma, sarcoma and human prostate xenografts; details: cited from earlier work; for Cure rates after anti-vascular PDT: mice and rats
[3] = tested on: human blood; assay: Spectroscopic sPO2 of photosensitized blood
Method: sPO2 of photosensitized blood: Optical spectroscopy. Fresh human blood collected in Na-citrate was steered (37° C.) in a sealed optical cuvette (under N2) without or with Pd-Bpheid (100 μg/ml). Online spectroscopic sPO2 determination was performed with a LESA reflectance spectrometer (Biospec, Moscow, Russia) as described (Neeman et al., 2001). Recording was initiated 2 minutes prior to illumination. Ten illumination cycles (1 min each, 170 mW/cm^2) were performed with spectral measurements (8×5 sec) in the intervening periods when the light was turned-off.
For spectroscopic examination, fresh human blood was subjected to spectral analysis of sPO2 during PDT in vitro. […] Upon illumination, a rapid decline in sPO2 was observed reaching a plateau at ˜25% (≧2 minutes of illumination). In the absence of Pd-Bpheid, illumination had no effect.

[4] = tested on: M2R melanoma xenografts; assay: Follow up of tumor response after Pd-Bpheid PDT; format: in vivo, mouse
Method: (i) Animals, tumor model and PDT Male CD1 nude mice (30 g±2 g) were implanted s.c. with M2R melanoma xenografts. PDT of anesthetized mice was performed on tumors (7-9 mm in diameter), as previously described (Zilberstein et al., 2001), with slight changes to allow for manipulation inside the magnet during MRI recording, or to perform PDT on the anesthetized mouse placed on the microscope stage during IVM. Intravenous (i.v.) Pd-Bpheid administration (5 mg/kg in vehicle, provided by Negma-Lerads Laboratoires, Toussus Le-Noble, France) was immediately followed by fiber optic guided tumor illumination (light spot Ø=1 cm^2, 763 nm, 102 J/cm^2) for 10 minutes, using a 1 W diode laser (CeramOptec GmbH, Bonn, Germany). The experiments were performed inside the magnet during the MRI recording (see details below). Room temperature was kept constant (28° C.) throughout the experiments.
PDT was performed in three modes: (i) for tumor therapy, i.v. Pd-Bpheid administration was immediately followed by transcutaneous illumination; (ii) for MR imaging, Pd-Bpheid administration (by remotely activated i.v. catheterization) and transcutaneous illumination were performed inside the magnet (FIG. 5A); and (iii) for IVM, Pd-Bpheid administration and illumination of the semi-transparent mouse ear were conducted on top of the microscope stage.
Controls: Light control: illumination of tumors in mice administered with vehicle alone (without photosensitizer). Dark control, Pd-Bpheid administered to tumor-bearing mice without illumination. Mice were euthanized (CO2) to avoid tumor burden when tumors reached ≧10% of body weight. All experiments were conducted according to institutional animal welfare regulations.
Male CD1 nude mice, s.c. implanted with M2R melanoma xenografts were i.v.-injected with Pd-Bpheid (5 mg/kg) and instantly illuminated for 10 minutes (102 J/cm^2). Hemorrhagic tumor necrosis (10/11 mice within 24-48 h) was accompanied by a strong inflammatory response. Tumors in untreated (4/4) light (4/4 mice) or dark (4/4 mice) controls continued to grow reaching […] of body […] by 9±3 days. […]

[5] = tested on: M2R melanoma tumor; assay: Online BOLD-contrast MRI during solid tumor PDT; format: in vivo, mouse
Method: (a) Gradient echo (GE) and multiecho gradient echo (MEGE) MR images were acquired on a horizontal 4.7 T Bruker Biospec spectrometer (Rheinstetten, Germany), as described previously (Gilead et al., 1999). Imaging parameters are as follows: slice thickness 0.8 mm, TR 230 ms, TE 10 ms for GE and TE 10, 21.24 and 32.48 ms for MEGE, flip angel 40°, acquisition (AQ) time 117 sec, matrix 256×256 pixels.
(b) Animal studies: Whole body excitation coil and an RF decoupled 1.5 cm surface coil were used for improving signal/noise ratio (field of view 4 cm, slice thickness 0.8 mm). Mice were anesthetized, catheterized, and restrained by adhesive tape (supine/lateral) to locate the tumor above the center of the MRI surface coil; the laser optic fiber was fixed in place to illuminate the tumor area (FIG. 5A). After four sequential images were acquired, mice were treated i.v. with Pd-Bpheid (5 mg/kg) followed by 10 min illumination, while 11 more images were acquired. Room temperature was maintained at 28° C.
(d) Data analysis: MRI data was analyzed using Matlab (The MathWorks Inc., Natick, Mass., USA), Orisis (Version 4.0.9, Geneva, Switzerland) and Paravision 2.1.1 (Bruker, Rheinstetten, Germany). MR signal intensity was derived from each image, either from the region of interest inside the tumor or in control tissue, and normalized to the first image. Response maps were generated by division of each image by the average of the first 2 pre-PDT images. R2* maps were derived by noise weighted linear regression of log(SI), for each pixel. Only pixels with fit of R^2≧0.36 were analyzed. R2*: MRI relaxivity parameter; R^2: statistical correlation parameter.
Having shown that photosensitization of Pd-Bpheid induces changes in blood oxygen levels, we next attempted to detect such changes during PDT of a solid tumor in vivo, using MRI. BOLD-MR imaging was applied before, during and after PDT of the solid subcutaneous M2R melanoma tumor. Pd-Bpheid administration, followed by instant tumor illumination, induced a profound decrease in the MR signal intensity (25-40%) solely within the illuminated tumor area (FIGS. 5C, 6A and 6E). […] MR signal attenuation developed during the first 6-7 minutes of illumination and remained low throughout the experiment.
The MRI value ΔR2* (relaxivity difference in T2*-weighted acquisitions) is dependent only on changes in blood oxygenation and volume, and is not dependent on blood flow.

[6] = tested on: normal canine prostate; details: dog, in vivo; cited from earlier work
[7] = tested on: M2R melanoma tumor blood vessels; assay: Immunohistochemistry of HNE-protein adducts (lipid peroxidation) in tumors after PDT; format: in vivo, mouse; details: tumors dissected 1 hour after PDT
Excerpt: (iii) Immunohistochemistry (IHC): Histological and immunohistological examinations were used for validation of the results obtained during the PDT experiments conducted by MRI and IVM. Dissected tumors were fixed in paraformaldehyde, and embedded in paraffin. IHC of PDT-induced LPO was based on immunodetection of HNE (4-hydroxynonenal), an aldehydic peroxidation product of polyunsaturated fatty acids that forms covalent adducts with proteins by reductive amination and/or Michael type addition (Uchida et al., 1995). PDT-damaged areas were visualized by IHC with anti-HNE. Thus, tumor sections were re-hydrated, blocked with bovine serum albumin for 4 h at 37° C., and treated with rabbit anti-HNE antiserum specifically recognizing HNE adducts (Calbiochem, La Jolla, Calif., USA, 1:400). HRP-conjugated goat anti-rabbit antibody served as 2nd antibody (Jackson, West Grove, Pa., USA) using 3-amino-9-ethylcarbazole as a chromogenic substrate (AEC, Sigma, St. Louis, Mo., USA).
Tumors were dissected 1 hour after PDT, fixed and prepared for IHC. […] In tumors taken from light controls (FIGS. 2B, 2E) or dark controls (data not shown), HNE staining was negative in blood vessels and was seen only in necrotic tumor core (spontaneous, PDT independent). FIGS. 2A, 2B and 2C are parallel adjacent sections of 2D, 2E and 2F, respectively, stained with hematoxylin-eosin.

[8] = tested on: human blood; assay: T2* weighted MRI of photosensitized isolated blood (ex vivo); details: for Decline in T2* weighted MR signal intensity of blood: untreated blood = 100%
Method: (c) Ex-vivo measurements: Freshly collected human blood in sodium citrate was spun down and re-suspended in autologous plasma to 0.6-0.7 hematocrit to minimize red blood cell (RBC) sedimentation during MRI experiments. Blood samples (500 μl) were placed in 6×50 mm glass tubes (Kimble, Div. of Owens, Ill., USA), sealed under N2 and each placed in a 3.5 ml optical plastic cuvette containing 2 ml of PBS. A proton volume coil was used (field of view 7 cm, slice thickness 2 mm, data was zero filled to matrix 512×512). Data were analyzed as the mean signal intensity of the blood sample relative to the surrounding phosphate-buffered saline (PBS).
For the MRI examination, we next determined the effect of PDT on sPO2 in isolated human blood, as manifested in T2* weighted MR signal intensity, under similar conditions. […] Thus, photosensitization of Pd-Bpheid in blood reduces sPO2 as reflected by a significant decrease in signal intensity of […] MR images in the absence of flow and volume changes.

## CC[C@H]1c2cc3[n-]c4c(c3C)C(=O)[C@H](C(=O)OC)c4c3nc(cc4[n-]c(cc(n2)[C@@H]1C)c(C(C)=O)c4C)[C@@H](C)[C@@H]3CCC(=O)O.[Pd+2] [Pd-Bpheid, Palladium-bacteriopheophorbide]
[1]; 2-3 minutes after onset of illumination
  Reduction in arteriolar diameter: about 50%
[1]; 2-6 minutes after onset of illumination
  Blood flow (RBC flux): sharp decline in blood flow
[1]; FIG. 3C
  Time to complete blood stasis after onset of illumination: 6 to 7 min
[1]; FIG. 3C, immediate illumination of ear lobe
  Time to stasis (perfusion rate in arterioles and venules): 3 to 4 min
[1]; at end of illumination period, ± S.E.
  Extravascular TRITC-dextran (256 KDa) leakage, highest level: 145±8 % of baseline
[2]; Schreiber et al., 2002
  Incidence of metastasis compared with conventional surgery: decreased the incidence of metastasis
[2]
  Cure rates after anti-vascular PDT: high cure rates
[3]; Pd-Bpheid 100 μg/ml, 170 mW/cm^2, ≧2 minutes of illumination
  sPO2 plateau upon illumination: ~25%
[3]; within the first min of illumination, FIG. 4A
  Decline in sPO2: ~75%
[4]; 5 mg/kg i.v., instant illumination 10 min, 102 J/cm^2, within 24-48 h
  Hemorrhagic tumor necrosis (responding/treated mice): 10/11
[4]; 5 mg/kg, no light
  Tumors continued to grow (dark control, Pd-Bpheid without illumination): 4/4
[4]; one mouse, 5 mg/kg i.v., 763 nm, 102 J/cm^2, day 54 post treatment
  Tumor outcome in visual follow-up: cure
[5]; 5 mg/kg i.v., 10 min illumination
  Decrease in MR signal intensity in illuminated tumor: 25-40%
[5]; Pd-Bpheid without illumination, FIG. 6C
  Change in MR signal intensity, dark tumor control: No detectable change in signal intensity
[5]; during PDT
  Time to generation of photosensitized MR BOLD-contrast: ≤ 2 min
[5]; from onset of illumination
  Time over which MR signal attenuation developed: 6 to 7 min
[6]
  Outcome of PDT in canine prostate: full necrosis of the tumor without functional urethral damage or damage to other adjacent tissues
[7]
  HNE adduct immunostaining (ROS-induced LPO): massive generation of HNE adducts co-localized with tumor blood vessels
[8]; 1 min illumination
  Decline in T2* weighted MR signal intensity of blood: 38.1%
[8]; 5 min illumination
  Decline in T2* weighted MR signal intensity of blood: 74.4%
[8]; Pd-Bpheid without light
  MR signal intensity of dark control blood: essentially identical to that of untreated blood

## bacteriochlorophyll-serine [Bchl-Ser, reference compound]
[2]
  Cure rates after anti-vascular PDT: high cure rates
